# Measurements reported in patent US8871946B2, “Benzimidazole-4-carboxamide derivatives, their preparation methods, pharmaceutical compositions and their uses” (Zhejiang Medicine Co., Ltd. Xinchang Pharmaceutical Factory, priority 2009, dated 2014).
# Read-outs that look alike come from different tables or passages of the source.
# Test system: coxsackie B3 viruses
# Test: Measures of anti-coxsackie B3 viruses activity of the compounds in Vero cells
# Type: cell-based
# Source text: Measures of Anti-Coxsackie B3 Viruses Activity of the Compounds The products are applied for measures of antivirus properties of Vero cells. Refer to the results of Table 3: datum of anti-coxsackie B3 viruses activities of some compounds. […] IC50 indicates half inhibitory concentration for viruses. RBV indicates triazole nucleoside, is also called ribavirin, virazole.
# [1] = half inhibitory concentration for viruses
smiles,measurement,setting,value
O=C(NC(CO)C(O)c1ccc([N+](=O)[O-])cc1)c1cccc2[nH]c(-c3ncccn3)nc12 (stereo not drawn) [(L)-2-(2-pyrimidinyl)-1H-benzimidazole-4-[N-(1-hydroxymethyl-2-p-nitrophenylhydroxyethyl)]amide],IC50,[1],9.8 µg/mL
O=C(NC(CO)C(O)c1ccc([N+](=O)[O-])cc1)c1cccc2[nH]c(-c3ccc[nH]3)nc12 (stereo not drawn) [(L)-2-(2-pyrrolyl)-1H-benzimidazole-4-[N-(1-hydroxymethyl-2-p-nitrophenylhydroxyethyl)]amide],IC50,[1],5.3 µg/mL
O=C(NC(CO)C(O)c1ccc([N+](=O)[O-])cc1)c1cccc2[nH]c(-c3cccs3)nc12 (stereo not drawn) [(L)-2-(2-thienyl)-1H-benzimidazole-4-[N-(1-hydroxymethyl-2-p-nitrophenylhydroxyethyl)]amide],IC50,[1],15.90 µg/mL
"O=C(NC(CO)C(O)c1ccc([N+](=O)[O-])cc1)c1cccc2[nH]c(-c3cc(O)c(O)c(O)c3)nc12 (stereo not drawn) [(L)-2-(3,4,5-trihydroxyphenyl)-1H-benzimidazole-4-[N-(1-hydroxymethyl-2-p-nitrophenylhydroxyethyl)]amide]",IC50,[1],10.2 µg/mL
"Cc1cc(C)c(-c2nc3c(C(=O)NC(CO)C(O)c4ccc([N+](=O)[O-])cc4)cccc3[nH]2)[nH]1 (stereo not drawn) [(L)-2-(3,5-dimethyl-2-pyrrolyl)-1H-benzimidazole-4-[N-(1-hydroxymethyl-2-p-nitrophenylhydroxyethyl)]amide]",IC50,[1],8.6 µg/mL
O=C(NC(CO)C(O)c1ccc([N+](=O)[O-])cc1)c1cccc2[nH]c(-c3cccnn3)nc12 (stereo not drawn) [(L)-2-(3-pyridazinyl)-1H-benzimidazole-4-[N-(1-hydroxymethyl-2-p-nitrophenylhydroxyethyl)]amide],IC50,[1],5.8 µg/mL
Nc1ncnc(Cl)c1-c1nc2c(C(=O)NC(CO)C(O)c3ccc([N+](=O)[O-])cc3)cccc2[nH]1 (stereo not drawn) [(L)-2-(4-amino-6-chloro-5-pyrimidinyl)-1H-benzimidazole-4-[N-(1-hydroxymethyl-2-p-nitrophenylhydroxyethyl)]amide],IC50,[1],17.2 µg/mL
CN(C)c1ccnc(-c2nc3c(C(=O)NC(CO)C(O)c4ccc([N+](=O)[O-])cc4)cccc3[nH]2)c1 (stereo not drawn) [(L)-2-(4-dimethylaminopyridyl)-1H-benzimidazole-4-[N-(1-hydroxymethyl-2-p-nitrophenylhydroxyethyl)]amide],IC50,[1],10.2 µg/mL
COc1ccnc(-c2nc3c(C(=O)NC(CO)C(O)c4ccc([N+](=O)[O-])cc4)cccc3[nH]2)c1 (stereo not drawn) [(L)-2-(4-methoxypyridyl)-1H-benzimidazole-4-[N-(1-hydroxymethyl-2-p-nitrophenylhydroxyethyl)]amide],IC50,[1],6.3 µg/mL
Cc1nc(-c2nc3c(C(=O)NC(CO)C(O)c4ccc([N+](=O)[O-])cc4)cccc3[nH]2)sc1N (stereo not drawn) [(L)-2-(4-methyl-5-aminothiazolyl)-1H-benzimidazole-4-[N-(1-hydroxymethyl-2-p-nitrophenylhydroxyethyl)]amide],IC50,[1],8.9 µg/mL
Nc1ccc(-c2nc3c(C(=O)NC(CO)C(O)c4ccc([N+](=O)[O-])cc4)cccc3[nH]2)s1 (stereo not drawn) [(L)-2-(5-amino-2-thienyl)-1H-benzimidazole-4-[N-(1-hydroxymethyl-2-p-nitrophenylhydroxyethyl)]amide],IC50,[1],2.3 µg/mL
O=C(NC(CO)C(O)c1ccc([N+](=O)[O-])cc1)c1cccc2[nH]c(-c3ccc([N+](=O)[O-])s3)nc12 (stereo not drawn) [(L)-2-(5-nitro-2-thienyl)-1H-benzimidazole-4-[N-(1-hydroxymethyl-2-p-nitrophenylhydroxyethyl)]amide],IC50,[1],10.69 µg/mL
COc1cccc(-c2nc3c(C(=O)NC(CO)C(O)c4ccc([N+](=O)[O-])cc4)cccc3[nH]2)n1 (stereo not drawn) [(L)-2-(6-methoxypyridyl)-1H-benzimidazole-4-[N-(1-hydroxymethyl-2-p-nitrophenylhydroxyethyl)]amide],IC50,[1],11.2 µg/mL
Cn1cccc1-c1nc2c(C(=O)NC(CO)C(O)c3ccc([N+](=O)[O-])cc3)cccc2[nH]1 (stereo not drawn) [(L)-2-(N-methyl-2-pyrrolyl)-1H-benzimidazole-4-[N-(1-hydroxymethyl-2-p-nitrophenylhydroxyethyl)]amide],IC50,[1],11.1 µg/mL
O=C(NC(CO)C(O)c1ccccc1[N+](=O)[O-])c1cccc2[nH]c(N3CCNCC3)nc12 (stereo not drawn) [(L)-2-N-piperazinyl-1H-benzimidazole-4-[N-(1-hydroxymethyl-2-o-nitrophenylhydroxyethyl)]amide],IC50,[1],4.2 µg/mL
O=C(NC(CO)C(O)c1ccc([N+](=O)[O-])cc1)c1cccc2[nH]c(-c3nccs3)nc12 (stereo not drawn) [(L)-2-thiazolyl-1H-benzimidazole-4-[N-(1-hydroxymethyl-2-p-nitrophenylhydroxyethyl)]amide],IC50,[1],11.2 µg/mL
O=C(NC(CO)C(O)c1ccc([N+](=O)[O-])cc1)c1cccc2[nH]c(-c3c[nH]c4ccccc34)nc12 [(L-)2-(3-indolyl)-1H-benzimidazole-4-[N-(1-hydroxymethyl-2-p-nitrophenylhydroxyethyl)]amide],IC50,[1],9.6 µg/mL
"NC(=O)c1ncn([C@@H]2O[C@H](CO)[C@@H](O)[C@H]2O)n1 [RBV, ribavirin, reference compound]",IC50,"Enterovirus B, B3, half inhibitory concentration for viruses, read-out: IC50",354 µg/mL
